These results are taken from US4812567A, “Polycyclic spiroimides with psychotropic activity” (American Home Products Corporation, priority 1986, dated 1989).

In this test the test system is conditioned avoidance (shelf-jump response). The experiment in a line: conditioned avoidance (shelf-jump response) test in rats. The format is in vivo, Male CD rats. An excerpt:
A test designed to determine the potential antipsychotic activity of the compounds of this invention is the conditioned avoidance (shelf-jump response) test. Male CD rats (Charles River) maintained at approximately 400-450 gm body weight are used. […] A moveable wall, controlled by a motor, determines whether the rat has access to the shelf at any time during the experiment. The experimental chamber also contains a house light and sonalert. A steel grid floor in the main chamber is wired for presentation of electric shock. Each trial consists of a […]-second warning tone (conditioned stimulus), continuing for an additional fifteen seconds accompanied by electric shock, (unconditioned stimulus). A response (jumping onto the exposed shelf of the upper chamber) occurring during the initial fifteen-second warning tone is considered an avoidance response, while a response occurring during shock delivery is considered an escape response. Trials are presented on a fixed interval schedule of one minute. The session consists of thirty-six trials. Animals are run twice weekly with control sessions always preceding a drug run, and with at least one day intervening. Compounds are administered i.p. or p.o. at appropriate pre-treatment times to a minimum of five rats at each dose level over a range of doses. […] Response counts are summed over all subjects at a given dose. […] This number is expressed as a percentage of the total trials. […] Potential antipsychotic compounds suppress avoidance responding and increase escape responding.

Structures can show the parent of a compound that is named as a salt.

In the case of `O=C1CC2(CCC3CCC2C3)C(=O)N1CCCCN1CCN(c2ncccn2)CC1` (centres unmarked) [Example 1, 1'-[4-[4-(2-Pyrimidinyl)-1-piperazinyl]butyl]spiro[bicyclo[3.2.1]octane-2,3'-pyrrolidine]-2',5'-dione, dihydrochloride, hemihydrate], the Active at (i.p.) was 40 mg/kg.

Consider `O=C1CC2(CCCC2)CC(=O)N1CCCCN1CCN(c2cncc(Cl)n2)CC1` [Example 4, 8-[4-[4-(6-Chloro-2-pyrazinyl)-1-piperazinyl]butyl]-8-azaspiro[4,5]decane-7,9-dione dihydrochloride, hydrate], for which the Active at (orally administered) came out at 40 mg/kg.

In the case of `O=C1CC2(CCCC2)CC(=O)N1CCCCN1CCN(c2nccnc2Cl)CC1` [Example 5, 8-[4-[4-(3-Chloro-2-pyrazinyl)-1-piperazinyl]butyl]-8-azaspiro[4,5]decane-7,9-dione dihydrochloride, hemihydrate], the Active at (i.p.) stood at 40 mg/kg.

As to `O=C1CC2(CCCC2)CC(=O)N1CCCCN1CCN(c2ccc(Cl)nn2)CC1` [Example 6, 8-[4-[4-(6-Chloro-3-pyridazinyl]-1-piperazinyl]-8-azaspiro[4,5]decane-7,9-dione dihydrochloride], the Active at (i.p.) stood at 40 mg/kg.

On to “Octahydro-1'-[4-[4-(2-Pyrimidinyl)-1-piperazinyl]butyl]spiro[4,7-methano-5H-indene-5,3'-pyrrolidine]-2',5'-dione, dihydrochloride [Example 2]”, for which the Active at (i.p.) is given as 40 mg/kg.
